Measurements: ChEMBL document CHEMBL1139202, “Inhibition of mycobacterial arylamine N-acetyltransferase contributes to anti-mycobacterial activity of Warburgia salutaris” (Bioorg Med Chem, 2007)

Tested on: Mycobacterium tuberculosis
Assay: Antimycobacterial activity against wild type Mycobacterium bovis BCG after 21 days
Assay type: functional, organism-based
Conditions: variant bovis BCG

CC(=O)O[C@@H]1C=C2C(=O)O[C@@H](O)[C@]2(O)[C@@]2(C)CCCC(C)(C)[C@H]12
Activity: Dose-dependent effect
